# Measured values published in patent publication US8252837B2 (TMRC Co., Ltd., priority 2007, dated 2012).
# Key:
# [1] = tested on: IL-6 dependent RARα(+) human multiple myeloma cells U266; conditions: SCID mice, oral 10 mg/kg/day for 28 consecutive days, FIG. 2
# [2] = Oil component (base) solubility test; format: physicochemical; conditions: in propylene glycol fatty acid ester
# Procedure: Oil Component (Base) Solubility Test
# (75% humidity), and at 60° C.
solubility and stability in the dissolved solution [2],Structure (SMILES),growth of U266 cells (volume of tumor) [1]
,"CC1=C(/C=C/C(C)=C/C=C/C(C)=C/C(=O)O)C(C)(C)CCC1 [ATRA, all-trans retinoic acid]",inhibited the growth
optimum,"CC1(C)CCC(C)(C)c2cc(NC(=O)c3ccc(C(=O)O)cc3)ccc21 [Tamibarotene, 4-[(5,6,7,8-tetrahydro-5,5,8,8-tetramethyl-2-naphthalenyl)carbamoyl]benzoic acid]",
